# According to patent publication US11083725B2 (priority 2014, dated 2021):
# System: NHBE cells
# Assay: Biolog metabolic array: substrate use by NHBE cells with or without CA09 infection
# Format: cell-based, human
# Conditions: for Substrate use, 590 nm absorbance normalized to zero hour, 1 hr: Biolog PMM2, 1 hr; for Substrate use, 590 nm absorbance normalized to zero hour, 5 hr: Biolog PMM2, 5 hr; for Substrate use, 590 nm absorbance normalized to zero hour, 7 hr: Biolog PMM2, 7 hr
# [1] = Control (uninfected) NHBE cells
# [2] = Virus (CA09, MOI 1) infected NHBE cells
# [3] = Virus (CA09-infected, MOI 1) NHBE cells
# [4] = Virus: CA09-infected NHBE cells, MOI 1, Biolog PMM2
# [5] = Virus (CA09-infected NHBE cells, MOI 1)
smiles,measurement,setting,value
NC(=O)CCC(=O)O [Succinamic Acid],"590 nm absorbance normalized to zero hour (substrate use), 1 hr",[1],1.11
same,"590 nm absorbance normalized to zero hour (substrate use), 2 hr",[1],0.37
same,"590 nm absorbance normalized to zero hour (substrate use), 3 hr",[1],0.42
same,"590 nm absorbance normalized to zero hour (substrate use), 4 hr",[1],0.42
same,"590 nm absorbance normalized to zero hour (substrate use), 6 hr",[1],0.44
same,"590 nm absorbance normalized to zero hour (substrate use), 8 hr",[1],0.51
same,"590 nm absorbance normalized to zero hour (substrate use), 9 hr",[1],0.54
same,"590 nm absorbance normalized to zero hour (substrate use), 10 hr",[1],0.56
same,"590 nm absorbance normalized to zero hour (substrate use), 11 hr",[1],0.61
same,"Substrate use, 590 nm absorbance normalized to zero hour, 1 hr",[1],1.11
same,"Substrate use, 590 nm absorbance normalized to zero hour, 5 hr",[1],0.45
same,"Substrate use, 590 nm absorbance normalized to zero hour, 7 hr",[1],0.50
same,"Substrate use, 590 nm absorbance normalized to zero hour, 1 hr",[2],1.45
same,"Substrate use, 590 nm absorbance normalized to zero hour, 5 hr",[2],2.03
same,"Substrate use, 590 nm absorbance normalized to zero hour, 7 hr",[2],2.22
same,"590 nm absorbance normalized to zero hour (substrate use), 1 hr",[3],1.45
same,"590 nm absorbance normalized to zero hour (substrate use), 2 hr",[3],1.65
same,"590 nm absorbance normalized to zero hour (substrate use), 3 hr",[3],1.88
same,"590 nm absorbance normalized to zero hour (substrate use), 4 hr",[3],1.85
same,"590 nm absorbance normalized to zero hour (substrate use), 6 hr",[3],2.14
same,"590 nm absorbance normalized to zero hour (substrate use), 8 hr",[3],2.30
same,"590 nm absorbance normalized to zero hour (substrate use), 9 hr",[3],2.41
same,"590 nm absorbance normalized to zero hour (substrate use), 10 hr",[3],2.37
same,"590 nm absorbance normalized to zero hour (substrate use), 11 hr",[3],2.51
CO[C@@H]1OC[C@@H](O)[C@H](O)[C@H]1O [b-Methyl-D-Xyloside],"590 nm absorbance normalized to zero hour (substrate use), 0 hr",[1],1.00
same,"590 nm absorbance normalized to zero hour (substrate use), 1 hr",[1],1.53
same,"590 nm absorbance normalized to zero hour (substrate use), 2 hr",[1],6.40
same,"590 nm absorbance normalized to zero hour (substrate use), 3 hr",[1],1.59
same,"590 nm absorbance normalized to zero hour (substrate use), 4 hr",[1],1.73
same,"590 nm absorbance normalized to zero hour (substrate use), 6 hr",[1],1.14
same,"590 nm absorbance normalized to zero hour (substrate use), 8 hr",[1],4.02
same,"590 nm absorbance normalized to zero hour (substrate use), 9 hr",[1],2.33
same,"590 nm absorbance normalized to zero hour (substrate use), 10 hr",[1],2.61
same,"590 nm absorbance normalized to zero hour (substrate use), 11 hr",[1],3.03
same,"Substrate use, 590 nm absorbance normalized to zero hour, 0 hr","Control (uninfected) NHBE cells, Biolog PMM2, 0 hr",1.00
same,"Substrate use, 590 nm absorbance normalized to zero hour, 1 hr",[1],1.53
same,"Substrate use, 590 nm absorbance normalized to zero hour, 5 hr",[1],2.08
same,"Substrate use, 590 nm absorbance normalized to zero hour, 7 hr",[1],4.46
same,"590 nm absorbance normalized to zero hour (substrate use), 0 hr",[3],1.00
same,"590 nm absorbance normalized to zero hour (substrate use), 1 hr",[3],1.92
same,"590 nm absorbance normalized to zero hour (substrate use), 2 hr",[3],2.38
same,"590 nm absorbance normalized to zero hour (substrate use), 3 hr",[3],2.79
same,"590 nm absorbance normalized to zero hour (substrate use), 4 hr",[3],2.82
same,"590 nm absorbance normalized to zero hour (substrate use), 5 hr",[3],3.12
same,"590 nm absorbance normalized to zero hour (substrate use), 6 hr",[3],3.28
same,"590 nm absorbance normalized to zero hour (substrate use), 7 hr",[3],3.39
same,"590 nm absorbance normalized to zero hour (substrate use), 8 hr",[3],3.52
same,"590 nm absorbance normalized to zero hour (substrate use), 9 hr",[3],3.77
same,"590 nm absorbance normalized to zero hour (substrate use), 10 hr",[3],3.87
same,"590 nm absorbance normalized to zero hour (substrate use), 11 hr",[3],4.01
same,"590 nm absorbance normalized to zero hour (substrate use), 0 hr",[4],1.00
same,"590 nm absorbance normalized to zero hour (substrate use), 1 hr",[4],1.92
same,"590 nm absorbance normalized to zero hour (substrate use), 2 hr",[4],2.38
same,"590 nm absorbance normalized to zero hour (substrate use), 3 hr",[4],2.79
same,"590 nm absorbance normalized to zero hour (substrate use), 4 hr",[4],2.82
same,"590 nm absorbance normalized to zero hour (substrate use), 5 hr",[4],3.12
same,"590 nm absorbance normalized to zero hour (substrate use), 6 hr",[4],3.28
same,"590 nm absorbance normalized to zero hour (substrate use), 7 hr",[4],3.39
same,"590 nm absorbance normalized to zero hour (substrate use), 8 hr",[4],3.52
same,"590 nm absorbance normalized to zero hour (substrate use), 9 hr",[4],3.77
same,"590 nm absorbance normalized to zero hour (substrate use), 10 hr",[4],3.87
same,"590 nm absorbance normalized to zero hour (substrate use), 11 hr",[4],4.01
OC[C@@H](O)[C@@H](O)[C@@H](O)CO [Adonitol],"590 nm absorbance normalized to zero hour (substrate use), 1 hr",[1],0.57
same,"590 nm absorbance normalized to zero hour (substrate use), 2 hr",[1],0.78
same,"590 nm absorbance normalized to zero hour (substrate use), 3 hr",[1],0.93
same,"590 nm absorbance normalized to zero hour (substrate use), 4 hr",[1],0.98
same,"590 nm absorbance normalized to zero hour (substrate use), 6 hr",[1],1.35
same,"590 nm absorbance normalized to zero hour (substrate use), 8 hr",[1],1.40
same,"590 nm absorbance normalized to zero hour (substrate use), 9 hr",[1],1.55
same,"590 nm absorbance normalized to zero hour (substrate use), 10 hr",[1],1.43
same,"590 nm absorbance normalized to zero hour (substrate use), 11 hr",[1],1.46
same,"Substrate use, 590 nm absorbance normalized to zero hour, 1 hr",[1],0.57
same,"Substrate use, 590 nm absorbance normalized to zero hour, 5 hr",[1],1.16
same,"Substrate use, 590 nm absorbance normalized to zero hour, 7 hr",[1],1.28
same,"590 nm absorbance normalized to zero hour (substrate use), 1 hr",[5],0.21
same,"590 nm absorbance normalized to zero hour (substrate use), 2 hr",[5],0.26
same,"590 nm absorbance normalized to zero hour (substrate use), 3 hr",[5],0.29
same,"590 nm absorbance normalized to zero hour (substrate use), 4 hr",[5],0.31
same,"590 nm absorbance normalized to zero hour (substrate use), 5 hr",[5],0.34
same,"590 nm absorbance normalized to zero hour (substrate use), 6 hr",[5],0.36
same,"590 nm absorbance normalized to zero hour (substrate use), 7 hr",[5],0.38
same,"590 nm absorbance normalized to zero hour (substrate use), 8 hr",[5],0.39
same,"590 nm absorbance normalized to zero hour (substrate use), 9 hr",[5],0.42
same,"590 nm absorbance normalized to zero hour (substrate use), 10 hr",[5],0.44
same,"590 nm absorbance normalized to zero hour (substrate use), 11 hr",[5],0.43
same,"590 nm absorbance normalized to zero hour (substrate use), 1 hr",[4],0.21
same,"590 nm absorbance normalized to zero hour (substrate use), 2 hr",[4],0.26
same,"590 nm absorbance normalized to zero hour (substrate use), 3 hr",[4],0.29
same,"590 nm absorbance normalized to zero hour (substrate use), 4 hr",[4],0.31
same,"590 nm absorbance normalized to zero hour (substrate use), 5 hr",[4],0.34
same,"590 nm absorbance normalized to zero hour (substrate use), 6 hr",[4],0.36
same,"590 nm absorbance normalized to zero hour (substrate use), 7 hr",[4],0.38
same,"590 nm absorbance normalized to zero hour (substrate use), 8 hr",[4],0.39
same,"590 nm absorbance normalized to zero hour (substrate use), 9 hr",[4],0.42
same,"590 nm absorbance normalized to zero hour (substrate use), 10 hr",[4],0.44
same,"590 nm absorbance normalized to zero hour (substrate use), 11 hr",[4],0.43
